From patent US6635641B2 (Agouron Pharmaceuticals, Inc., priority 2000, dated 2003) come the findings set out here.

By inhibition is commonly meant the change of the read-out against control, counted positive when it falls. For orientation: IC50 means the concentration at which inhibition is half-maximal.

For one assay, the target named is T1, CDK4/Cyclin D3 complex (Homo sapiens, UniProt P11802).
T1 construct: made in house; host or cells: insect cells co-infected with baculovirus vectors
The assay is described as follows: CDK4/Cyclin D assay ([32P]ATP incorporation into Rb fragment). Format: biochemical. The settings on record: read-out: CDK4 percent inhibition. How it is done: A complex of human CDK4 and cyclin D3, or a complex of cyclin D1 and a fusion protein of human CDK4 and glutathione-S-transferase (GST-CDK4), was purified using traditional biochemical chromatographic techniques from insect cells that had been co-infected with the corresponding baculovirus expression vectors.
Cyclin-dependent kinase activity was measured by quantifying the enzyme-catalyzed, time-dependent incorporation of radioactive phosphate from [^32P]ATP into a recombinant fragment of the retinoblastoma protein. Unless noted otherwise, assays were performed in 96-well plates in a total volume of 50 μL, in the presence of 10 mM HEPES (N-[2-hydroxyethyl]piperazine-N′-[2-ethanesulfonic acid]) (pH 7.4), 10 mM MgCl2, 25 μM adenosine triphosphate (ATP), 1 mg/mL ovalbumin, 5 μg/mL leupeptin, 1 mM dithiothreitol, 10 mM β-glycerophosphate, 0.1 mM sodium vanadate, 1 mM sodium fluoride, 2.5 mM ethylene glycol-bis(β-aminoethyl ether)-N,N,N′N′-tetraacetic acid (EGTA), 2% (v/v) dimethylsulfoxide, and 0.03-0.2 μCi [^32P]ATP. The substrate (0.3-0.5 μg) was purified recombinant retinoblastoma protein fragment (Rb) (residues 386-928 of the native retinoblastoma protein; 62.3 kDa, containing the majority of the phosphorylation sites found in the native 106-kDa protein, as well as a tag of six histidine residues for ease of purification). Reactions were initiated with CDK2 (150 nM CDK2/Cyclin A complex) or CDK4 (50 nM CDK4/Cyclin D3 complex), incubated at 30° C., and terminated after 20 minutes by the addition of ethylenediaminetetraacetic acid (EDTA) to 250 mM. The phosphorylated substrate was then captured on a nitrocellulose membrane using a 96-well filtration manifold, and unincorporated radioactivity was removed by repeated washing with 0.85% phosphoric acid. Radioactivity was quantified by exposing the dried nitrocellulose membranes to a phosphorimager. Apparent Ki values were measured by assaying enzyme activity in the presence of different compound concentrations and subtracting the background radioactivity measured in the absence of enzyme. The kinetic parameters (kcat, Km for ATP) were measured for each enzyme under the usual assay conditions by determining the dependence of initial rates on ATP concentration. The data were fit to an equation for competitive inhibition using Kaleidagraph (Synergy Software), or were fit to an equation for competitive tight-binding inhibition using the software KineTic (BioKin, Ltd.). Measured Ki values for known inhibitors against CDK4 and CDK2 agreed with published IC50 values. The specific activity of CDK4 was the same whether complexed to full-length cyclin D3 or the truncated Cyclin D3 construct; both complexes also yielded very similar Ki values for selected inhibitors.

For assay [1], the system named is human umbilical vein endothelial cells (HUVEC). Put plainly: HUVEC proliferation assay (VEGF-stimulated, MTT). Format: cell-based. To be noted: Homo sapiens, HUVEC. An outline of the steps: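 Proliferation measured by MTT reduction (4 h exposure, absorbance at 595) 72 hours after VEGF stimulation (final 6 ng/ml). Compound added to 24 h-starved HUVEC in F12K with 1% FBS and 0.1% final DMSO, one hour before the growth factor.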

In another assay the target is T2, FL-CHK-1 (Homo sapiens, UniProt O14757).
T2 construct: C-terminally His-tagged full-length human CHK-1 (FL-CHK-1); made in house; host or cells: baculovirus/insect cells
T2 sequence (O14757 1-476): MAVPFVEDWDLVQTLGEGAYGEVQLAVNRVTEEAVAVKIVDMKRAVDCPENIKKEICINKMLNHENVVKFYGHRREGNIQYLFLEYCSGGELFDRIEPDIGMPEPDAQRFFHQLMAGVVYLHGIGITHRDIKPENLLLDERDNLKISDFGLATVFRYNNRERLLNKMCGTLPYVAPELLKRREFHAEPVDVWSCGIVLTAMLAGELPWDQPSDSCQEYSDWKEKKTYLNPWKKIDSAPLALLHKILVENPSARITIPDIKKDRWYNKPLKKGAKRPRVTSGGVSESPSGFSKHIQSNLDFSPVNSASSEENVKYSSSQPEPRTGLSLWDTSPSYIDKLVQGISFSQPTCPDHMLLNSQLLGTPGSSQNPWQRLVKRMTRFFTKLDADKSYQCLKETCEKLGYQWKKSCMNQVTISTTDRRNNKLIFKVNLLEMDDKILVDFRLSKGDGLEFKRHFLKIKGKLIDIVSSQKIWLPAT
The assay is described as follows: CHK-1 coupled spectrophotometric assay (Syntide-2). Format: biochemical. The settings on record: @ 1 μM; read-out: CHK-1 percent inhibition. From the text:
C-terminally His-tagged full-length human CHK-1 (FL-CHK-1) was expressed using the baculovirus/insect cell system. It contains 6 histidine residues (6×His-tag) at the C-terminus of the 476 amino acid human CHK-1. The protein was purified by conventional chromatographic techniques.
The production of ADP from ATP that accompanies phosphoryl transfer to the synthetic substrate peptide Syntide-2 ([…]) was coupled to oxidation of NADH using phosphoenolpyruvate (PEP) through the actions of pyruvate kinase (PK) and lactic dehydrogenase (LDH). The oxidation of NADH was monitored by following the decrease of absorbance at 340 nm (ε340=6.22 cm−1 mM^−1) using a HP8452 spectrophotometer. Typical reaction solutions contained: […]; 0.15 mM NADH; 28 units of LDH/ml; 16 units of PK/ml; 3 mM DTT; 0.125 mM Syntide-2; 0.15 mM ATP; 25 mM MgCl2 in 50 mM TRIS, pH 7.5; and 400 mM NaCl. Assays were initiated with 10 nM of FL-CHK-1. Ki values were determined by measuring initial enzyme activity in the presence of varying concentrations of test compounds. The data were analyzed using Enzyme Kinetic and Kaleidagraph software.

The mark [2] stands for this setting: with albumin, read-out: Huvec + Albumin IC50.

Read-outs that look alike come from different tables or passages of the source. Some results are limits rather than exact numbers.

T1 sequence (P11802 whole entry): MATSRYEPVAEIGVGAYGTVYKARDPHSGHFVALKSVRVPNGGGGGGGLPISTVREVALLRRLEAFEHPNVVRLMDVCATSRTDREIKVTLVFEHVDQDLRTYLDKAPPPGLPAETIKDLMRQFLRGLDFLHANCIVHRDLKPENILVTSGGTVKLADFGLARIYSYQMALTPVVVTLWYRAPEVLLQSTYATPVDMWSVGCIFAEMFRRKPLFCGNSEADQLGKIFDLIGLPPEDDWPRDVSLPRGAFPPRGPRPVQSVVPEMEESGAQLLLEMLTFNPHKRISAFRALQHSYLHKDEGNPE
T1 sequence (P30281 whole entry partner): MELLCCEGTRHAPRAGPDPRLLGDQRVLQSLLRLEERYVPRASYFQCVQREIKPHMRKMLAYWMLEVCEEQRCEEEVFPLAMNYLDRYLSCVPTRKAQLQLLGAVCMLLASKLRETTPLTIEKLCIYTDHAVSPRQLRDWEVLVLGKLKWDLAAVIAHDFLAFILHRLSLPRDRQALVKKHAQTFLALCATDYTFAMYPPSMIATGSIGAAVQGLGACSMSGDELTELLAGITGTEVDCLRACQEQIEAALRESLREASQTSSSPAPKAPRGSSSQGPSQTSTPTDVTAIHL

For the compound `Cc1ccc2cc(NC(=O)c3cccc(SCc4cc(Nc5ccccc5)n[nH]4)c3)ccc2n1` [Example E-1, N-(2-methyl-quinolin-6-yl)-3-[{5-(phenylamino)-2-H-pyrazol-3-yl}methylsulfanyl]benzamide], the inhibition at 100 µM at CDK4/Cyclin D3 complex (@ 100 μM) stood at 40%. The figures for the IC50 in assay [1] (read-out: HUVEC IC50) and in assay [1] (setting [2]) were 170 nM and > 1000 nM, respectively.
Turning to `CC(=O)Nc1ccc(COc2cccc(C(=O)Nc3ccc4nc(C)ccc4c3)c2)cn1` [Example N-1, 3-(6-Acetylaminopyridin-3-yl)methoxy-N-(2-methyl-quinolin-6-yl)-benzamide], the inhibition at 1 µM on FL-CHK-1 was found to be 10%; at CDK4/Cyclin D3 complex, 19%. Besides, the IC50 was 38 nM in assay [1] (read-out: HUVEC IC50) and > 1000 nM in assay [1] (setting [2]).
Take `O=C(Nc1ccc(N2CCCC2)c(C(F)(F)F)c1)c1cccc(CCc2cc(Nc3cccnc3)n[nH]2)c1` [Example G-11]: the inhibition at 1 µM at FL-CHK-1 was 7%; at CDK4/Cyclin D3 complex, 16%. Moreover, the half-maximal inhibitory concentration (IC50) in assay [1] (read-out: HUVEC IC50) was 4.4 nM; in assay [1] (setting [2]) it was 64 nM.
As to `Cc1cc(NC(=O)c2ccc(F)c(OCc3cncc4ccccc34)c2)ccc1C(C)C` [Example K-10, N-(4-Isopropyl-3-methyl-phenyl)-4-fluoro-3-(Isoquinolin-4-yl)methoxy-benzamide], the inhibition at 1 µM was 8% at FL-CHK-1 and 17% at CDK4/Cyclin D3 complex. For the same compound, in assay [1] (read-out: HUVEC IC50), the IC50 is 12 nM.
